{"source": "paper PMC8639922", "about": "“KSHV transactivator-derived small peptide traps coactivators to attenuate MYC and inhibits leukemia and lymphoma cell growth” (Communications Biology, 2021)", "format": "in vivo, BALB/c mice", "details": "BALB/c female, 10 mg/kg i.p., 5 day-on 2 day-off, two weeks, average n=5/group", "description": "Based on strong and selective MYC down-regulation and cell killing activity of cancer cells in vitro, we next studied the therapeutic potential of VGN50 by examining the efficacy of cancer cell killing over toxicities to mice in a PEL xenograft model with BCBL-1 cells. Pilot studies determined that the peptide was well-tolerated in immunocompetent mice when administered as 10 mg/kg peptide via intraperitoneal (i.p.) injection with a 5-day-on 2-day-off schedule for 2 weeks, as shown by no notable changes in body weight, complete blood counts, and serum biochemical properties (Supplementary Fig. 5). Based on the drug schedule, we examined the effects of the peptide on xenograft PEL cell growth. In this established model, BCBL-1 cells grow in the peritoneal cavity resulting in the accumulation of ascites, which can be measured as a body weight gain that corresponds to the volume of ascites. We inoculated male NRG mice with 2 × 10^7 BCBL-1 cells via i.p. injection followed by injections of VGN50 (10 mg/kg), mutant control peptide or PBS, daily for 10 days starting from 2 days after (day 0) tumor inoculation. All mice in the control PBS-treated groups reached the humane endpoint by 10 days (Fig. 6a). […] At the termination point, tumor growth was also validated by flow cytometry analysis of PEL cells in ascites fluid (Fig. 6b, c). […] A similar phenotype is reported in MYC knock-out cardiac myocytes and keratinocytes[56],[57].\nPBS VGN50 Mutant Normal ranges […]\nExt ended Dat a Fi gure 5. BALB/ c mi ce ( 8 weeks ol d, female, n=5/ gr oup) wer e i nj ect ed wi t h 10mg/ kg of VGN50 or mut ant pept i de i n 200 uL i.p. wi t h a 5 day-on 2 day off schedul e f or t wo week s . Body wei ght changes wer e measur ed dai l y ( a) . At t he end of t he exper i ment , f r esh bl ood and ser um col l ect ed wer e subj ect ed f or complet e blood count s and serum biochemical pr oper t i es, r espect i vel y ( b) .\n(1 picture or pasted object on this page, not shown here)", "note": "Square brackets hold non-standard residues; d marks the D form. Peptide text beside a SMILES is read from it. Orn = NCCC[C@H](N)C(=O)O; βAla = NCCC(=O)O", "data": [{"compound": "CC(C)C[C@H](NC(=O)CCNC(=O)[C@H](CCCNC(=N)N)NC(=O)[C@H](CCCNC(=N)N)NC(=O)[C@H](CCCNC(=N)N)NC(=O)[C@H](CCCN)NC(=O)[C@H](CCCNC(=N)N)NC(=O)[C@H](CCCNC(=N)N)NC(=O)[C@H](CCCCN)NC(=O)[C@H](CCCCN)NC(=O)[C@H](N)CCCNC(=N)N)C(=O)N[C@@H](CO)C(=O)N[C@@H](CO)C(=O)N[C@@H](C)C(=O)N[C@@H](C)C(=O)N[C@@H](C)C(=O)NCC(=O)N[C@@H](CC(C)C)C(=O)N[C@@H](Cc1ccc(O)cc1)C(=O)N[C@@H](CCC(N)=O)C(=O)N[C@@H](CC(C)C)C(=O)N[C@@H](CC(=O)O)C(=O)N[C@H](C(=O)O)[C@@H](C)O", "note": "[Mt-P] (H-[dR]KKRR[Orn]RRR[βAla]LSSAAAGLYQLDT-OH; N-terminus and C-terminus assumed)", "values": [{"measurement": "Absolute Basophil cells", "setting": "normal 0.0-0.1", "value": 0.06, "unit": "K/ul"}, {"measurement": "Absolute Eosinophil cells", "setting": "normal 0.0-0.1", "value": 0.14, "unit": "K/ul"}, {"measurement": "Total Bilirubin", "setting": "normal 0.0-0.2", "value": 0.05, "unit": "mg/dL"}, {"measurement": "Creatinine", "setting": "normal 0.0-0.3", "value": 0.20, "unit": "mg/dL"}, {"measurement": "Basophil %", "setting": "normal 0.0-0.5", "value": 0.70, "unit": "%"}, {"measurement": "Eosinophil %", "setting": "normal 0.0-0.8", "value": 2.14, "unit": "%"}, {"measurement": "Alanine Transaminase", "setting": "normal 0-403", "value": 82.85, "unit": "U/L"}, {"measurement": "Aspartate Transaminase", "setting": "normal 0-552", "value": 651.13, "unit": "U/L"}, {"measurement": "Absolute Monocyte cells", "setting": "normal 0.2-1.0", "value": 0.43, "unit": "K/ul"}, {"measurement": "Absolute Neutrophil cells", "setting": "normal 1.0-3.7", "value": 1.12, "unit": "K/ul"}, {"measurement": "Monocyte %", "setting": "normal 2.5-7.5", "value": 5.52, "unit": "%"}, {"measurement": "Albumin", "setting": "normal 2.9-4.0", "value": 3.67, "unit": "g/dL"}, {"measurement": "Absolute Lymphocyte cells", "setting": "normal 4.3-10.6", "value": 2.54, "unit": "K/ul"}, {"measurement": "Total Protein", "setting": "normal 4.7-6.1", "value": 4.81, "unit": "g/dL"}, {"measurement": "MPV", "setting": "normal 5.0-20.0", "value": 3.05, "unit": "fL"}, {"measurement": "WBC", "setting": "normal 5.1-14.7", "value": 4.22, "unit": "K/ul"}, {"measurement": "Potassium", "setting": "normal 6.9-10.0", "value": 6.90, "unit": "mmol/L"}, {"measurement": "Phosphorus", "setting": "normal 7.5-10.7", "value": 7.46, "unit": "mg/dL"}, {"measurement": "Calcium", "setting": "normal 9.6-11-5", "value": 9.39, "unit": "mg/dL"}, {"measurement": "Hemoglobin", "setting": "normal 11.7-16.2", "value": 7.07, "unit": "g/dL"}, {"measurement": "RDW %", "setting": "normal 12.4-27.0", "value": 10.08, "unit": "%"}, {"measurement": "Neutrophil %", "setting": "normal 12.5-31.2", "value": 16.70, "unit": "%"}, {"measurement": "MCH", "setting": "normal 13.3-16.7", "value": 7.62, "unit": "pg"}, {"measurement": "Blood Urea Nitrogen", "setting": "normal 15.2-34.7", "value": 20.03, "unit": "mg/dL"}, {"measurement": "MCHC", "setting": "normal 27.6-32.9", "value": 13.18, "unit": "g/dL"}, {"measurement": "Hematocrit %", "setting": "normal 38.3-54.0", "value": 27.72, "unit": "%"}, {"measurement": "MCV", "setting": "normal 45.3-53.6", "value": 29.04, "unit": "fL"}, {"measurement": "Alkaline Phosphatase", "setting": "normal 49-172", "value": 129.20, "unit": "U/L"}, {"measurement": "Lymphocyte %", "setting": "normal 62.9-82.7", "value": 31.21, "unit": "%"}, {"measurement": "Chloride", "setting": "normal 105-118", "value": 112.13, "unit": "mmol/L"}, {"measurement": "Glucose", "setting": "normal 130-254", "value": 194.73, "unit": "mg/dL"}, {"measurement": "Sodium", "setting": "normal 150-160", "value": 145.25, "unit": "mmol/L"}, {"measurement": "Platelets", "setting": "normal 574-1079", "value": 333.29, "unit": "K/uL"}, {"measurement": "Amylase", "setting": "normal 2463-6660", "value": 1624.05, "unit": "U/L"}]}]}
